For data set [1], the system named is OCI-AML3 cells. The experiment in a line: Sensitivity of OCI-AML3 cells to Venetoclax/ABT-199. To be noted: Homo sapiens, OCI-AML-3. It counts as cell-based.
Data set [2] has as its system MCL-1 expression in OCI-AML3 cells. The experiment in a line: MCL-1 expression in OCI-AML3 cells in vitro. It counts as cell-based. To be noted: multiple time points after treatment, FIG. 4. From the text:
MCL-1 expression was decreased in OCI-AML3 cells at multiple time points following treatment with alvocidib (FIG. 4).

Data set [3] concerns OCI-AML3 cells. The experiment in a line: In vivo tumor growth, immune deficient mice injected with OCI-AML3 cells. To be noted: 2.5 mg/kg intraperitoneal, once a day for 21 days, by day 21, FIG. 3. As to the method:
Alvocidib was used alone to test in vivo activity in OCI-AML3 cells. […] To test the in vivo activity, immune deficient mice injected with OCI-AML3 cells were treated with 2.5 mg/kg of alvocidib via intraperitoneal injection or 100 mg/kg of Venetoclax/ABT-199 per os (i.e., oral administration). Each treatment (i.e., alvocidib and Venetoclax/ABT-199) was administered once a day for 21 days.

Data set [4] concerns MCL-1 expression in MV-4-11 cells. The experiment in a line: MCL-1 protein expression in MV-4-11 cells treated in vitro. The data set is classed as cell-based.
Description: MV-4-11 cells were treated with alvocidib in vitro, harvested and analyzed to probe for changes relative to controls. Additionally, other exemplary CDK9 inhibitors (i.e., palbociclib and dinaciclib) were evaluated, along with alvocidib.
For the next data set, the system named is OPM2 cells. The experiment in a line: Cell viability (CellTiter-Glo) in OPM2 multiple myeloma cells. The data set is classed as cell-based. The conditions noted are these: 72 hours, compared to Venetoclax, FIG. 6. Here is the method:
To assess the effects of alvocidib or Venetoclax treatment on multiple myeloma cells, OPM2 cells were cultured in RPMI media supplemented with 10% FBS and penicillin/streptomycin. Cell viability was assessed in treated cells using the CellTiter-Glo reagent (Promega), according to manufacturer protocol. Cells were treated in 96-well plates for 72 hours, before being analyzed in a luminescence compatible plate reader. Curve fitting and analysis was performed using Graphpad Prism software.

A further data set relates to HEL cells. The experiment in a line: Cell viability (CellTiter-Glo) in HEL erythroleukemia cells. It counts as cell-based. To be noted: 72 hours, compared to Venetoclax, FIG. 5. As to the method:
To assess the effects of alvocidib or Venetoclax treatment on leukemic cells, the erythroleukima cell line, HEL, was cultured in RPMI media supplemented with 10% FBS and penicillin/streptomycin. Cell viability was assessed in treated cells using the CellTiter-Glo reagent (Promega), according to manufacturer protocol. Cells were treated in 96-well plates for 72 hours, before being analyzed in a luminescence compatible plate reader. Curve fitting and analysis was performed using Graphpad Prism software.

The conditions of data set [5]: in vivo; cited from earlier work.

Consider three compounds from patent publication US11497756B2, “Treatment regimen for cancers that are insensitive to BCL-2 inhibitors using the MCL-1 inhibitor alvocidib” (Sumitomo Pharma Oncology, Inc., priority 2017, dated 2022).

Compound `CC1(C)CCC(CN2CCN(c3ccc(C(=O)NS(=O)(=O)c4ccc(NCC5CCOCC5)c([N+](=O)[O-])c4)c(Oc4cnc5[nH]ccc5c4)c3)CC2)=C(c2ccc(Cl)cc2)C1` [Venetoclax] gave an EC50 with OCI-AML3 cells [1] of 2330 nM.
For the compound `CN1CC[C@H](c2c(O)cc(O)c3c(=O)cc(-c4ccccc4Cl)oc23)[C@H](O)C1` [alvocidib], the MCL-1 expression entry was “decreased” in data set [2] and “decreased MCL-1 expression” in data set [4] (24 hour treatment, FIG. 2). Moreover, in the data set with OCI-AML3 cells [3], the “reduction in tumor growth” value was determined as 50%. Besides, the “impact on MCL-1 protein levels compared with the other CDK9 inhibitors” value in data set [4] (24 hour treatment, FIG. 2) was “strongest impact on MCL-1 protein levels”. In addition, the “MCL-1 expression relative to controls” value in data set [4] (alvocidib 0-8 μM, FIG. 1) is listed as “decreases MCL-1 expression in MV-4-11 in a dose dependent manner”. Besides, the cell viability result in the data set on OPM2 cells and in the data set on HEL cells was “inhibition of cell viability” each time.
On to `CC1(C)CCC(c2ccc(Cl)cc2)=C(CN2CCN(c3ccc(C(=O)NS(=O)(=O)c4ccc(N[C@H](CCN5CCOCC5)CSc5ccccc5)c(S(=O)(=O)C(F)(F)F)c4)cc3)CC2)C1` [navitoclax], for which the toxicity result in data set [5] was “toxic due to thrombocytopenia”.

For orientation: EC50 means the concentration at which the effect is half-maximal. Read a low EC50 as greater potency.
